In PMC6977318, “In vitro and in situ study on characterization and mechanism of the intestinal absorption of 2,3,5,4′-tetrahydroxy-stilbene-2-O-β-D-glucoside” (BMC Pharmacology & Toxicology, 2020):
Blank lines part the entries; values can stand above or below the molecule they belong to.

Tests used:
MRP2 [1] = assay: Effect of MRP2 inhibitor on TSG transport across Caco-2 cell monolayer; assay type: in vitro ADME
Protocol: The effect of efflux protein inhibitors on the intestinal absorption of TSG was studied based on Caco-2 cell monolayer model. […] Before the administration, the inhibitor was added to AP side and BL side, and the plate was placed in an incubator. After 30 min, the inhibitor solution was replaced with TSG solution at concentration of 30 μg·mL^− 1 to inspect the effect of efflux proteins on TSG.
Then, the supernatant was analyzed by HPLC. HPLC separation was performed on Eclipse Plus C18 column (4.6 mm × 250 mm, 5 μm) at 30 °C. The mobile phase consisted of acetonitrile and 0.1% formic acid water (25:75) and the velocity of flow is 1 mL·min^− 1. The injected sample volume was 5 μL. TSG was detected at wavelength of 320 nm.
(§1) (1): 1 Papp=dQ/dt×1/A×1/C0

MRP2 [2] = target: T1, MRP2 (Rattus norvegicus, UniProt Q63120); assay: Effect of MRP2 inhibitor on intestinal absorption of TSG, in situ perfusion; assay type: in vivo
T1 construct: from tissue; host or cells: rat small intestine, perfused in situ
T1 sequence (Q63120 whole entry, the tested form may be a part): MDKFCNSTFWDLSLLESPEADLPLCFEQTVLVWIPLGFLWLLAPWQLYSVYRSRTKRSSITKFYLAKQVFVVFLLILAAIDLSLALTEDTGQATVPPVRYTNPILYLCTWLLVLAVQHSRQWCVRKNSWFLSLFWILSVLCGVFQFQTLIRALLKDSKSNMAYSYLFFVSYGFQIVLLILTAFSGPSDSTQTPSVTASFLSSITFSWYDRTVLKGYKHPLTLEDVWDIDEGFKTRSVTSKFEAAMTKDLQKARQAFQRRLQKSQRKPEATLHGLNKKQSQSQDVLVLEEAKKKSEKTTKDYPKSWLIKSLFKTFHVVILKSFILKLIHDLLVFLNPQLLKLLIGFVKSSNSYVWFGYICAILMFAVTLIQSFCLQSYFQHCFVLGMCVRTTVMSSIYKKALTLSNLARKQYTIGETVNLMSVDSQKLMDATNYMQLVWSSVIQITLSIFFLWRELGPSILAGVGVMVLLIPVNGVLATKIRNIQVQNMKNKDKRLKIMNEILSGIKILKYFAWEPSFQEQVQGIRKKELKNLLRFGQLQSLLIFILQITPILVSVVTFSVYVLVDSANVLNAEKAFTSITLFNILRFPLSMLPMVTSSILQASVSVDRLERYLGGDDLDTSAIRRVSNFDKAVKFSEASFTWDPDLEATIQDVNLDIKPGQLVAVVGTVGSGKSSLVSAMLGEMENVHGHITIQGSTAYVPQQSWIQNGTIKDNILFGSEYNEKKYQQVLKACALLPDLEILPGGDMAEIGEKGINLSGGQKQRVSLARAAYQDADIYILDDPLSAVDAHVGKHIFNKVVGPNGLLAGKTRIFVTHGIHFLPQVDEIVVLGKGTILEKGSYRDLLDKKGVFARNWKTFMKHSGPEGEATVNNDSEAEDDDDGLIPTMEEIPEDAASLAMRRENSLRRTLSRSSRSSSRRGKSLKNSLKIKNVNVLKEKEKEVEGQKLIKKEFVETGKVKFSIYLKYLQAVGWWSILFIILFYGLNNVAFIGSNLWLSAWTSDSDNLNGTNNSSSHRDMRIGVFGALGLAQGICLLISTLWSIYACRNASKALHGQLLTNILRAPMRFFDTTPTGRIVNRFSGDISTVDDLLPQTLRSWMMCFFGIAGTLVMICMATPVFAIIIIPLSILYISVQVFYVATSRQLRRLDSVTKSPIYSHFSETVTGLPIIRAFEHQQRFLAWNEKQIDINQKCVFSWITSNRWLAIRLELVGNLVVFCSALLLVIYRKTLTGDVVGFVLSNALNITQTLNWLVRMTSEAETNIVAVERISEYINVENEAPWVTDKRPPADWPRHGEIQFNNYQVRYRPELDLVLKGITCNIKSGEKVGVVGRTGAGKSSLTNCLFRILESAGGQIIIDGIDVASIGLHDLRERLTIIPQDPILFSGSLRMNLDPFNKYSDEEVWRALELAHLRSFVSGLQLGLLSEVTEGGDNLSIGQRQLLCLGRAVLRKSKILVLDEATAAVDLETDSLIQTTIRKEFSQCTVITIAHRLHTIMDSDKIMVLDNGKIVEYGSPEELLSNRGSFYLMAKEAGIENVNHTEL
Protocol: The perfusion was started with inhibitor solution at a flow rate of 2 mL·min^− 1, and after 30 min, it was replaced with TSG solution to investigate the influences of efflux proteins on TSG.
(§2) 1 mL sample was mixed with equal amount of methanol, filtered through a membrane filter (0.45 μm pore size), and centrifuged at 12000 r·min^− 1 for 10 min. […] The mobile phase consisted of (A) 0.1% formic acid water and (B) acetonitrile. The gradient elution was set as: linear gradient elution 20–35% B (0-15 min) with a flow rate of 1 mL·min^− 1. The injected sample volume was 5 μL. TSG was detected at wavelength of 320 nm and phenol red was detected at wavelength of 430 nm. The concentration of phenol red was used to correct the volume of intestinal circulating fluid. The concentration of TSG and the volume of intestinal circulating fluid in each time period was used to calculate the residual drug amount (X). With the sampling time t as independent variable and lnX as dependent variable, the absorption rate constant Ka was determined from the slope of the straight line. The drug absorption percentage were calculated by the ratio of the change value of the remaining dose of t (h) to the amount of the remaining drug at time 0.
(§3) The absorption rate constants (Ka) and percentage of absorption (PA, %) were calculated using the following eqs. (3), (4), respectively.
(§4) Where X was the residual drug amount, C0 was the drug concentration of intestinal circulation liquid at 0 min, V0 was the drug volume of intestinal circulation liquid at 0 min, Ct was the drug concentration of intestinal circulation liquid at t min, Vt was the drug volume of intestinal circulation liquid at t min, t was the perfusion time.

[3] = MTT cytotoxicity of TSG for Caco-2 cells; assay type: cell-based; settings: human; Caco-2 cells, 60 μg·mL^− 1 TSG, 5 h, MTT; read-out: cell viability
Protocol: (§5) MTT assay was firstly used to investigate the effect of TSG with different concentrations on Caco-2 cells vitality. Briefly, Caco-2 cells were seeded in 96-wells plates at a density of 1 × 10^4 cells per well and placed in a 5% carbon dioxide incubator. After 48 h incubation, the cells were treated with increasing concentrations of TSG (0.75–240 μg·mL^− 1) and DMEM (containing 1%FBS) as a negative control. After 5 h of incubation, 20 μL of 5 mg·mL^− 1 MTT was added to each well, and the plate was incubated at 37 °C for 4 h. Then 150 μL of DMSO was added to each well after the supernatant was discarded. Absorbance was measured at a wavelength of 570 nm.

Caco-2 cells = assay: MTT cytotoxicity of TSG for Caco-2 cells; assay type: cell-based
Protocol: as §5

Caco-2 cell monolayer = assay: Bidirectional transport across Caco-2 cell monolayer (Papp); assay type: in vitro ADME
Protocol: Then, the supernatant was analyzed by HPLC. […] The injected sample volume was 5 μL. TSG was detected at wavelength of 320 nm.
as §1

P-gp = assay: Western blotting, expression of P-gp in Caco-2 cells after TSG; assay type: cell-based; settings: TSG 10, 30 and 60 μg·mL^− 1, 4 h; significant at 60 μg·mL^− 1 (p < 0.05)
Protocol: (§6) When Caco-2 cells grew to 80–90%, the cell were treated with different concentrations (10, 30 and 60 μg·mL^− 1) of TSG and blank medium solution (blank control group). […] The concentration of total proteins was detected by BCA kit, and the supernatant were mix with SDS-PAGE sample buffer after protein quantification, denatured on a heater for 5 min and stored.
(§7) The total proteins were electrophoresed in 10% SDS-PAGE gel and then transferred to PVDF membranes by wet process to block with 5% skim milk for 2 h at room temperature. Membranes were incubated overnight with the following primary antibodies Anti-P glycoprotein antibody (1:2000), Anti-MRP2 antibody (1:500), and GAPDH polyclonal antibody. After that, the membranes were washed with 0.1% TBST for 3 times and 10 min each time and incubated with corresponding secondary antibody (1:5000) for 1 h at room temperature. The OD density values of bands were analyzed using gel imaging and analysis system.

MRP2 [4] = assay: Western blotting, expression of MRP2 in Caco-2 cells after TSG; assay type: cell-based; settings: TSG 10, 30 and 60 μg·mL^− 1, 4 h; significant at 30 and 60 μg·mL^− 1 (p < 0.05)
Protocol: as §6, §7

[5] = In situ gastric perfusion of TSG in rats; assay type: in vivo; settings: rat
Protocol: According to the Chinese Pharmacopoeia, the artificial gastric juice without pepsin is configured under the time limit inspection method of disintegration.
The appropriate amount of TSG was accurately weighed, and the gastric perfusate was prepared at a concentration of 10, 30 and 60 μg·mL^− 1 using artificial gastric juice.
24 SD rats, half male and half female, were fasted for 12 h but permitted to drink water freely before surgery. Rats were anesthetized by intraperitoneal injection of 25% urethane ([…]) and placed in a supine position on the operating table. The abdominal cavity was opened along the midline of the abdomen, then the incision was made at the duodenum and the ileum. The polyethylene tubes were carefully inserted at both sides of the segment and ligatured with a sterile surgical line. […]
1 mL sample was mixed with equal amount of methanol, filtered through a membrane filter (0.45 μm pore size), and centrifuged at 12000 r·min^− 1 for 10 min. […] TSG was detected at wavelength of 320 nm and phenol red was detected at wavelength of 430 nm. […] With the sampling time t as independent variable and lnX as dependent variable, the absorption rate constant Ka was determined from the slope of the straight line. The drug absorption percentage were calculated by the ratio of the change value of the remaining dose of t (h) to the amount of the remaining drug at time 0.

[6] = In situ single-pass intestinal perfusion of TSG in rats (Ka, PA); assay type: in vivo, rat
Protocol: The proper amount of TSG was accurately weighed, and the intestinal circulation liquid with a concentration of 10, 30 and 60 μg·mL^− 1 was prepared by using a blank intestinal circulation solution.
24 SD rats, half male and half female, were fasted for 12 h but permitted to drink water freely before surgery. Rats were anesthetized by intraperitoneal injection of 25% urethane ([…]) and placed in a supine position on the operating table. The abdominal cavity was opened along the midline of the abdomen, then the incision was made at the duodenum and the ileum. The polyethylene tubes were carefully inserted at both sides of the segment and ligatured with a sterile surgical line. The contents of the intestines were slowly rinsed with 0.9% saline, prewarmed at 37 °C, and the residual liquid in the intestine was drained with air. Afterward, the wound in the abdomen of the rats was covered with a gauze soaked with 37 °C 0.9% saline buffer to moisturize after the operation, warmed with infrared lamp. The intestinal was equilibrated with a drug-containing perfusate (the concentration of TSG was 10, 30 and 60 μg·mL^− 1 respectively) which was preheated at 37 °C at a flow rate of 5 mL·min^− 1. Samples were collected in EP tubes after 10 min, and blank intestinal circulation solution (1 mL) was quickly added to circulatory solution. After that, the flow rate was adjusted to 2 mL·min^− 1, and the samples were taken at 10 min intervals for 4 h. In addition, in order to study the effects of different pH on intestinal absorption of TSG, the pH of the blank intestinal circulation solution was adjusted to 5.4 and 6.4, respectively. Finally, the experimental animals were euthanized by the method of rapid decapitation when the experiment was over. The procedures and precautions for sacrifice were the same as previously described.
as §2, §3, §4

[7] = design: method as in PMID 23371758; settings: rats plasma, two-compartment model; cited from earlier work
[8] = inhibitor 5 μg·mL^− 1, TSG 30 μg·mL^− 1, compared with TSG alone
[9] = inhibitor 25 μg·mL^− 1, TSG 30 μg·mL^− 1, compared with TSG alone
[10] = inhibitor 25 μg·mL^− 1, p < 0.05, rat

- increase of Papp values of TSG, AP-BL side (MRP2 [1]; [8]): ~2.22 times
- increase of Papp values of TSG, BL-AP side (MRP2 [1]; [8]): ~1.82 times
- increase of Papp values of TSG, AP-BL side (MRP2 [1]; [9]): ~3.02 times
- increase of Papp values of TSG, BL-AP side (MRP2 [1]; [9]): ~1.91 times
- Ka values of TSG in presence of inhibitor (MRP2 [2]; [10]): significantly enhanced
- PA values of TSG in presence of inhibitor (MRP2 [2]; [10]): significantly enhanced
SMILES: CCCN(CCC)S(=O)(=O)c1ccc(C(=O)O)cc1 [probenecid]

- absorption class from Papp (Caco-2 cell monolayer; Caco-2 cell monolayer): moderately absorbed drug
- time at which bilateral Papp values reached the maximum (Caco-2 cell monolayer; after administration, 10, 30 and 60 μg·mL^− 1): 1 h
- expression of P-gp in Caco-2 cells (P-gp): increased with concentration
- absorption in stomach ([5]; TSG 10, 30 and 60 μg·mL^− 1): well absorbed
- absorption rate in the intestine ([6]; in situ perfusion, rat): lower than 20%
- Ka between pH 6.4 and 7.4 ([6]; rat intestinal perfusion, p < 0.01): significant increase
- PA value of pH 7.4 versus pH 6.4 and 5.4 ([6]; rat intestinal perfusion, p < 0.05): significantly different
- absorption rate constant (Ka) at 10 μg·mL^− 1 versus 30 and 60 μg·mL^− 1 ([6]; rat small intestine, p < 0.05): significantly greater
- percentage of absorption (PA) at 10 μg·mL^− 1 versus 30 and 60 μg·mL^− 1 ([6]; rat small intestine, p < 0.05): significantly greater
- substrate of efflux protein MRP2 (MRP2 [2]; conclusion from in situ transport data): may be the substrate
SMILES: OC[C@H]1O[C@@H](Oc2c(O)cc(O)cc2/C=C/c2ccc(O)cc2)[C@H](O)[C@@H](O)[C@@H]1O [TSG, 2,3,5,4′-tetrahydroxystilbene-2-O-β-D-glucoside]
- viability at 5 h, 60 μg·mL^-1 [3]: > 90%
- cell viability (Caco-2 cells; Caco-2 cells, TSG more than 60 μg·mL^− 1, MTT): significantly decreased
- toxicity on Caco-2 cells (Caco-2 cells; TSG 0.75–60 μg·mL^− 1, MTT): basically no toxicity
- bilateral (AP-BL and BL-AP) Papp versus concentration (Caco-2 cell monolayer; 10, 30 and 60 μg·mL^− 1): decreased substantially with increasing concentration
- Papp values of bidirectional transport versus pH (Caco-2 cell monolayer; TSG 30 μg·mL^− 1, pH 7.4, 6.4, 5.4): increased significantly with the decrease of pH value
- expression of MRP2 in cells (MRP2 [4]): decreased
- absorption in stomach versus concentration ([5]; TSG 10, 30 and 60 μg·mL^− 1, p < 0.05): increased significantly with concentration
- absorption half-life (t1/2Ka) [7]: 14.80 min
- maximal concentration (Cmax) [7]: 5.70 μg·mL^− 1
